Experimental data reported in patent publication US7803930B2, “Antisense modulation of apolipoprotein B-expression” (Isis Pharmaceuticals, Inc., priority 2002, dated 2010).
In the oligonucleotide strings, read from the 5' end, every base follows the letter of its sugar. An asterisk marks phosphorothioate; unmarked linkages are phosphodiester. Other units and linkages are bracketed, terminal groups are in braces. A string of capitals states the bases alone. e = 2'-O-(2-methoxyethyl) (MOE); [5mC] = 5-methylcytosine; d = 2'-deoxy (DNA)

Legend:
[1] = system: human apolipoprotein B mRNA; test: Apolipoprotein B mRNA in primary human hepatocytes, real-time PCR; format: cell-based; conditions: for apolipoprotein B mRNA expression: 5, 10, 50 or 150 nM
Protocol: In accordance with the present invention, antisense oligonucleotides targeted to human apolipoprotein B were tested in dose response studies in primary human hepatocytes. Pre-plated primary human hepatocytes were purchased from Invitro Technologies (Baltimore, Md.). Cells were cultured in high-glucose DMEM (Invitrogen Corporation, Carlsbad, Calif.) supplemented with 10% fetal bovine serum (Invitrogen Corporation, Carlsbad, Calif.), 100 units/mL and 100 μg/mL streptomycin (Invitrogen Corporation, Carlsbad, Calif.).
Human primary hepatocytes were treated with ISIS 301012 (SEQ ID NO: 247) at 10, 50, 150 or 300 nM. Untreated cells and cells treated with the scrambled control oligonucleotide ISIS 113529 ([…], SEQ ID NO: 859) served as two groups of control cells. ISIS 113529 is a chimeric oligonucleotide (“gapmer”) 20 nucleotides in length, composed of a central “gap” region consisting of ten 2′-deoxynucleotides, which is flanked on both sides (5′ and 3′ directions) by five-nucleotide “wings”. The wings are composed of 2′-methoxyethyl (2′-MOE)nucleotides. The internucleoside (backbone) linkages are phosphorothioate (P═S) throughout the oligonucleotide. All cytidines are 5-methylcytidines.
(§1) Oligonucleotides were introduced into cells through LIPOFECTIN-mediated transfection as described by other examples herein. Cells were harvested both 24 and 48 hours after treatment with oligonucleotide, and both RNA and protein were isolated. Additionally, the culture media from treated cells was collected for ELISA analysis of apolipoprotein B protein secretion.
Apolipoprotein B mRNA expression was determined by real-time PCR of RNA samples as described by other examples herein. Each result represents 6 experiments.
(§2) An additional experiment was performed to test the effects of ISIS 271009 (SEQ ID NO: 319), ISIS 281625 (SEQ ID NO: 224) and ISIS 301027 (SEQ ID NO: 262) on human apolipoprotein B mRNA in human primary hepatocytes. Cells were cultured as described herein and treated with 5, 10, 50 or 150 nM of ISIS 271009, ISIS 281625 or ISIS 301027 for a period of 24 hours. The control oligonucleotides ISIS 13650 (SEQ ID NO: 806) and ISIS 113529 (SEQ ID NO: 859) were used at 50 or 150 nM. Human apolipoprotein B mRNA expression was evaluated by real-time PCR as described by other examples herein. Apolipoprotein B protein secreted into the cultured cell media was measured in the samples treated with 50 and 150 nM of oligonucleotide, using a target protein specific ELISA kit (ALerCHEK Inc., Portland, Me.).

[2] = system: apolipoprotein B protein; test: Apolipoprotein B protein secreted from primary human hepatocytes, ELISA; format: cell-based
Protocol: as §1
Apolipoprotein secreted from into the cultured cell media was measured in the samples treated with 50 and 150 nM of oligonucleotide, using a target protein specific ELISA kit (ALerCHEK Inc., Portland, Me.). Each result represents 3 experiments.
as §2

[3] = system: human apolipoprotein B mRNA; test: C57BL/6NTac-TgN(APOB100) transgenic mice, 8 weeks (Example 47): human apolipoprotein B mRNA in liver; format: in vivo, human transgene in mouse; conditions: C57BL/6NTac-TgN(APOB100) mice, 25 mg/kg i.p. twice a week, eight weeks; for mRNA % control, human mRNA: liver
Protocol: (§3) C57BL/6NTac-TgN(APOB100) mice were divided into two groups—one group receiving oligonucleotide treatment and control animals receiving saline treatment. After overnight fasting, mice were dosed intraperitoneally twice a week with saline or 25 mg/kg ISIS 281625 (SEQ ID No: 224) or ISIS 301012 (SEQ ID No: 247) for eight weeks. At study termination and forty eight hours after the final injections, animals were sacrificed and evaluated for target mRNA levels in liver, cholesterol and triglyceride levels, and liver enzyme levels. In addition, the endogenous mouse apolipoprotein B levels in liver were measured to evaluate any effects of these antisense oligonucletides targeted to the human apolipoprotein B.

[4] = system: endogenous mouse apolipoprotein B; test: C57BL/6NTac-TgN(APOB100) transgenic mice, 8 weeks (Example 47): endogenous mouse apolipoprotein B mRNA in liver; format: in vivo; conditions: C57BL/6NTac-TgN(APOB100) mice, 25 mg/kg i.p. twice a week, eight weeks; for levels of the endogenous mouse apolipoprotein B in liver: specificity; for mRNA % control, mouse mRNA: liver
Protocol: as §3

[5] = C57BL/6NTac-TgN(APOB100) transgenic mice (Example 47): liver enzyme, cholesterol, LDL-cholesterol and triglyceride levels; format: in vivo, mouse; conditions: C57BL/6NTac-TgN(APOB100) mice, 25 mg/kg i.p. twice a week, eight weeks; for AST and ALT levels: normal levels ~300 IU/L
Protocol: as §3

[6] = 5 nM, 24 hours, "+" = expression increased
[7] = 150 nM, 24 hours, "+" = increased

Substance	% Inhibition of apolipoprotein B mRNA expression [1, 6] [%]	% Inhibition of apolipoprotein B mRNA expression ([1]; 10 nM, 24 hours (Table 37)) [%]	% Inhibition of apolipoprotein B mRNA expression ([1]; 50 nM, 24 hours (Table 37)) [%]	% Inhibition of apolipoprotein B mRNA expression ([1]; 150 nM, 24 hours (Table 37)) [%]	apolipoprotein B mRNA expression ([1]; 24 hours)	% Inhibition of apolipoprotein B protein secretion ([2]; 50 nM, 24 hours) [%]	% Inhibition of apolipoprotein B protein secretion [2, 7] [%]	mRNA levels of the human apolipoprotein B in liver [3]	levels of the endogenous mouse apolipoprotein B in liver [4]	Cholesterol levels relative to saline treatment [5]	triglyceride levels relative to saline treatment [5]	AST and ALT levels [5]	% Inhibition of apolipoprotein B mRNA ([1]; 150 nM, 24 hours) [%]	% Inhibition of apolipoprotein B mRNA ([1]; 150 nM, 48 hours) [%]	% Inhibition of apolipoprotein B mRNA ([1]; 300 nM, 24 hours) [%]	% Inhibition of apolipoprotein B mRNA ([1]; 300 nM, 48 hours) [%]	% Change in apolipoprotein B protein secretion ([2]; 150 nM, 24 hours)	% Change in apolipoprotein B protein secretion ([2]; 150 nM, 48 hours)	mRNA % control, human mRNA [3] [% control]	mRNA % control, mouse mRNA [4] [% control]	other results
ISIS 281625: SEQ ID NO: 224, 2′-MOE gapmer targeted to human apolipoprotein B (antisense eA*eG*eG*eT*eT*dA*d[5mC]*d[5mC]*dA*dG*d[5mC]*d[5mC]*dA*d[5mC]*dA*eT*eG*e[5mC]*eA*eG)	8	22	49	52	inhibit apolipoprotein B mRNA expression in a dose-dependent manner	18	18	markedly decreased	unaffected	slightly increased	slightly decreased	increased, yet did not exceed normal levels	–	–	–	–	–	–	–	–	–
ISIS 301027: SEQ ID NO: 262, 2′-MOE gapmer targeted to human apolipoprotein B (antisense eG*e[5mC]*eT*e[5mC]*eA*d[5mC]*dT*dG*dT*dA*dT*dG*dG*dT*dT*eT*eT*eA*eT*e[5mC])	11	37	50	70	inhibit apolipoprotein B mRNA expression in a dose-dependent manner	21	32	–	–	–	–	–	–	–	–	–	–	–	–	–	secretion of apolipoprotein B protein from cells (ELISA) ([2]; 50 and 150 nM): inhibit the secretion of apolipoprotein B protein from cells in a dose-dependent manner
113529 (antisense e[5mC]*eT*e[5mC]*eT*eT*dA*d[5mC]*dT*dG*dT*dG*d[5mC]*dT*dG*dT*eG*eG*eA*e[5mC]*eA) [compound 113529]	–	–	–	–	–	–	–	–	–	–	–	–	16	5	10	18	+6%	+4%	–	–	–
301012 (eG*e[5mC]*e[5mC]*eT*e[5mC]*dA*dG*dT*d[5mC]*dT*dG*d[5mC]*dT*dT*d[5mC]*eG*e[5mC]*eA*e[5mC]*e[5mC]) [compound 301012]	–	–	–	–	–	–	–	–	–	–	–	–	90	78	89	72	−57%	−75%	23.7	94.6	% Inhibition of apolipoprotein B mRNA ([1]; 10 nM, 24 hours): 65%; % Inhibition of apolipoprotein B mRNA ([1]; 10 nM, 48 hours): 33%; % Inhibition of apolipoprotein B mRNA ([1]; 50 nM, 24 hours): 75%; % Inhibition of apolipoprotein B mRNA ([1]; 50 nM, 48 hours): 48%; Lipoproteins CHOL [5]: 145.1 mg/dL; Lipoproteins HDL [5]: 98.6 mg/dL; Lipoproteins LDL [5]: 36.6 mg/dL; Lipoproteins TRIG [5]: 157.8 mg/dL; Liver Enzymes ALT [5]: 137.4 IU/L; Liver Enzymes AST [5]: 208.4 IU/L
ISIS 301012: SEQ ID NO: 247, antisense oligonucleotide targeted to human apolipoprotein B (antisense GCCTCAGTCTGCTTCGCACC; chemistry not given here)	–	–	–	–	–	–	–	markedly decreased	unaffected	slightly increased	slightly decreased	increased, yet did not exceed normal levels	–	–	–	–	–	–	–	–	apolipoprotein B expression (mRNA) ([1]; 10, 50, 150 or 300 nM, 24 and 48 hours): inhibits apolipoprotein B expression in a dose-dependent manner
281625 (antisense eA*eG*eG*eT*eT*dA*d[5mC]*d[5mC]*dA*dG*d[5mC]*d[5mC]*dA*d[5mC]*dA*eT*eG*e[5mC]*eA*eG) [compound 281625]	–	–	–	–	–	–	–	–	–	–	–	–	–	–	–	–	–	–	45.2	111.0	Lipoproteins CHOL [5]: 152.0 mg/dL; Lipoproteins HDL [5]: 84.6 mg/dL; Lipoproteins LDL [5]: 49.8 mg/dL; Lipoproteins TRIG [5]: 171.1 mg/dL; Liver Enzymes ALT [5]: 363.8 IU/L; Liver Enzymes AST [5]: 265.8 IU/L
